Results on 16 compounds are retold here after US7749984B2, “Computer-based model for identification and characterization of non-competitive inhibitors of nicotinic acetylcholine receptors and related ligand-gated ion channel receptors” (priority 2003, dated 2010).

Like-named read-outs stand apart in the source and are kept apart here.

For test [1], the target named is T1, α3β4 nAChR (Rattus norvegicus, UniProt P04757+P12392). Particulars: nicotine concentration of ~300 μM or higher; cited from earlier work.
Test [2] deals with T1, α3β4 nAChR. Nature of the test: biochemical. Format: binding. More on the design: host or cells: HEK293 (KXα3β4R2).
The target in test [3] is T1, α3β4 nAChR. Nature of the test: Nicotine-stimulated 86Rb+ efflux assay, KXα3β4R2 cell line. More on the design: host or cells: HEK293 (KXα3β4R2). The test is classed as cell-based. The method, then:
After the prediction has been done based on clustering the actual values of IC50 were determined using the nicotine-stimulated ^86Rb^+ efflux assay on cell line KXα3β4R2.

Where [4] appears, read: nicotine-stimulated 86Rb+ efflux, cell line KXα3β4R2, read-out: IC50.
Setting [5] is: α3β4 nAChR, 10 μM, 20 μl injected, ammonium acetate 10 mM pH 7.4/methanol 85:15.
Setting [6] is: α3β4 nAChR, NLC, read-out: koff dissociation constant rate.
Where [7] appears, read: α3β4 nAChR, NLC, read-out: kon association constant rate.
Setting [8] is: α3β4 nAChR, NLC, read-out: log K chromatographic equilibrium constant (converted).

T1 sequence (P04757 26-499): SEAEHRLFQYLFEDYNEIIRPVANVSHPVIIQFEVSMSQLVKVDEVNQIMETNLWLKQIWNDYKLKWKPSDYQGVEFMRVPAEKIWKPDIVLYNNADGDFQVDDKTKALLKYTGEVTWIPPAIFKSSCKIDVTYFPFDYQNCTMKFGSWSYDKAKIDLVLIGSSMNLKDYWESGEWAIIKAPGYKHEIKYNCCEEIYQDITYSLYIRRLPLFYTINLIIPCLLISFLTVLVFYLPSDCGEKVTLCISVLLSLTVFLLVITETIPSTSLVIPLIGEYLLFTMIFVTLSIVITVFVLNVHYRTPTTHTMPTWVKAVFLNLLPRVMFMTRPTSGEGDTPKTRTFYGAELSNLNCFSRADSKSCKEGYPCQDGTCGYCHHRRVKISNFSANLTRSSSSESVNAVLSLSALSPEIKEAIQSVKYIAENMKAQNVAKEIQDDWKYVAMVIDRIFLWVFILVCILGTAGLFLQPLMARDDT
T1 sequence (P12392 21-495): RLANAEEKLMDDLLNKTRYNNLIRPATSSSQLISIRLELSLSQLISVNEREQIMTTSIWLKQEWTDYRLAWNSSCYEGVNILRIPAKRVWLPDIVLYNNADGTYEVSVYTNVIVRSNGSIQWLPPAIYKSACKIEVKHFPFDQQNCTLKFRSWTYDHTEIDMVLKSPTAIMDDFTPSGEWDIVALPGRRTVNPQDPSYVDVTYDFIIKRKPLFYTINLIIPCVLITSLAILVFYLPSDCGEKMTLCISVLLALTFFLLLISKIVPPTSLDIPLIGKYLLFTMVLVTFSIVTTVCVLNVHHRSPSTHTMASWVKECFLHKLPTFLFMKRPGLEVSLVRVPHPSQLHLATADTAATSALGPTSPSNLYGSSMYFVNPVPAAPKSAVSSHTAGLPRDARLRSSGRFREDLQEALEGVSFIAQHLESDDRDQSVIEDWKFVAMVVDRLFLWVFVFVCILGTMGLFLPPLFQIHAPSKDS

In the case of `CN1CCCC1c1cccnc1` (stereo not drawn) [nicotine], the “maximum 86Rb+ efflux” value in test [1] is recorded as ~45 % of the amount loaded.

In the case of `CNC1(C)C2CCC(C2)C1(C)C` (stereo not drawn) [mecamylamine], in test [2] (pH 7.4), the “k′(NLC) retention capacity factor” value was 10.89.

What is called IC50 is the concentration at which inhibition is half-maximal. As to `CNCCN1C(=O)[C@H](O)[C@H](c2ccc(O)cc2)Sc2ccccc21` [Compound M6], the “logk′” value in test [2] (α3β4 nAChR) turned out to be 1.48. Moreover, the IC50 in test [3] (setting [4]) amounted to 63100 nM.

For the compound `COc1ccc(CCN(C)CCCC(C#N)(c2cc(OC)c(OC)c(OC)c2)C(C)C)cc1OC` (stereo not drawn) [galapamil], the “logk′” value in test [2] (α3β4 nAChR) turned out to be 1.88. Also, in test [2] (α3β4 nAChR, NLC), the “koff dissociation constant rate” value stood at 0.74 s⁻¹ and the “log K chromatographic equilibrium constant” value was 7.43 M^−1. Besides, in test [2] (setting [5]), the “k′(NLC) retention capacity factor” value is 75.93. Also, the IC50 in test [3] (setting [4]) was found to be 6400 nM.

With `COc1ccc([C@@H]2Sc3ccccc3N(CCN(C)C)C(=O)[C@@H]2OC(C)=O)cc1` [dilthiazem], in test [2] (α3β4 nAChR), the “logk′” value turned out to be 1.64. In addition, the “koff dissociation constant rate” value in test [2] (α3β4 nAChR, NLC) worked out at 1.60 s⁻¹. In addition, the “log K chromatographic equilibrium constant” value in test [2] (α3β4 nAChR, NLC) turned out to be 7.22 M^−1. The “k′(NLC) retention capacity factor” value in test [2] (setting [5]) came to 43.53. Moreover, the 50% inhibitory concentration (IC50) was determined as 2260 nM in test [3] (cell line KXα3β4R2, read-out: IC50 of Rb+ efflux); 2200 nM in test [3] (setting [4]); 2300 nM in test [3] (nicotine-stimulated 86Rb+ efflux, α3β4 nAChR, read-out: IC50).

A word on the koff: it is a measure of how fast the partners let go of each other. As a reminder, the kon is the second-order rate constant of association. With `COc1ccc(CCNCCCC(C#N)(c2ccc(OC)c(OC)c2)C(C)C)cc1OC` (single isomer, unassigned) [nor-verapamil-R, nor-verapamil], the koff in test [2] (setting [6]) came to 0.58 s⁻¹. In test [2] (setting [7]), the kon amounted to 1.6e+07 M⁻¹ s⁻¹. In addition, the Kd in test [2] (setting [8]) was 36.3 nM. In addition, the “k′(NLC) retention capacity factor” value in test [2] (setting [5]) is 97.99.

For `COc1ccc2c(c1)[C@@]13CCCC[C@H]1[C@@H](C2)NCC3` [3 MM], in test [2] (α3β4 nAChR, NLC), the “koff dissociation constant rate” value stood at 1.00 s⁻¹ and the “log K chromatographic equilibrium constant” value amounted to 7.28 M^−1. In test [2] (setting [5]), the “k′(NLC) retention capacity factor” value was determined as 56.47.

For the compound `C[C@]12N[C@H](Cc3ccccc31)c1ccccc12` [MK-801], the dissociation rate constant (koff) in test [2] (setting [6]) stood at 3.48 s⁻¹. The kon in test [2] (setting [7]) was determined as 2.71e+07 M⁻¹ s⁻¹. Moreover, the Kd in test [2] (setting [8]) is 129 nM. For the same compound, in test [2] (setting [5]), the “k′(NLC) retention capacity factor” value is reported as 19.10.

Take `COc1ccc(CCNCCCC(C#N)(c2ccc(OC)c(OC)c2)C(C)C)cc1OC` (single isomer, unassigned) [nor-verapamil-S, nor-verapamil]: the “koff dissociation constant rate” value in test [2] (α3β4 nAChR, NLC) was found to be 0.61 s⁻¹. In addition, the Kd in test [2] (setting [8]) is 39.8 nM. For the same compound, the “k′(NLC) retention capacity factor” value in test [2] (setting [5]) was 97.86.

On to `CN1CC[C@@]23CCCC[C@@H]2[C@@H]1Cc1ccc(O)cc13` [dextrorphan], for which, in test [2] (setting [6]), the koff was determined as 2.3 s⁻¹. In test [2] (setting [7]), the kon stood at 2.07e+07 M⁻¹ s⁻¹. Besides, in test [2] (setting [8]), the Kd was 112 nM.

For `CCCCC1C(=O)N(c2ccccc2)N(c2ccccc2)C1=O` [phenylbutazone], in test [2] (setting [6]), the koff came to 22.2 s⁻¹. The kon in test [2] (setting [7]) turned out to be 8.7e+06 M⁻¹ s⁻¹. Moreover, the Kd in test [2] (setting [8]) was 2570 nM.

In the case of `COc1ccc(C(C#N)(CCCN)C(C)C)cc1OC` [Compound D-620], in test [2] (α3β4 nAChR), the “logk′” value came out at 1.25. Also, in test [2] (α3β4 nAChR, NLC), the “koff dissociation constant rate” value was determined as 3.43 s⁻¹ and the “log K chromatographic equilibrium constant” value is 6.53 M^−1. In addition, the “k′(NLC) retention capacity factor” value in test [2] (setting [5]) turned out to be 17.72. In addition, the IC50 in test [3] (setting [4]) came out at 48900 nM.

Regarding `COc1ccc2c(c1)[C@@]13CCCC[C@H]1[C@@H](C2)N(C)CC3` [levomethorphan], in test [2] (chromatographic (NLC and van't Hoff)), the “K′” value is 35.81 (±0.15). Moreover, in test [2] (chromatographic (NLC)), the Ka is recorded as 12.01 (±0.23) μM^−1. Besides, the koff was 1.55 s⁻¹ in test [2] (chromatographic (NLC), read-out: Koff) and 1.55 s⁻¹ in test [2] (setting [6]). Moreover, the kon in test [2] (chromatographic (NLC), read-out: Kon) turned out to be 1.86e+07 M⁻¹ s⁻¹; in test [2] (setting [7]), 1.86e+07 M⁻¹ s⁻¹. Further, the Kd is 83.2 nM in test [2] (chromatographic (NLC), read-out: logKa (converted)) and 83.2 nM in test [2] (setting [8]). In addition, the “ΔG°” value in test [2] (chromatographic (van't Hoff)) was −2.04 (±0.4) kcal mol^−1. In addition, the “ΔH°” value in test [2] (chromatographic (van't Hoff)) is reported as −6.59 (±0.18) kcal mol^−1. Also, in test [2] (chromatographic (van't Hoff)), the “ΔS°” value is reported as −15.20 (0.6) cal mol^−1T^−1. In addition, the “k′(NLC) retention capacity factor” value in test [2] (setting [5]) was determined as 35.81. Besides, the concentration for half-maximal inhibition (IC50) came out at 10900 nM in test [3] (IC50, nicotine stimulated Rb+ efflux) and 10900 nM in test [3] (IC50 of Rb+ efflux, cell line KXα3β4R2).

With `CCOC(=O)C1=C(COCCN)NC(C)=C(C(=O)OC)C1c1ccccc1Cl` (stereo not drawn) [amlodipine], the IC50 in test [3] (IC50, nicotine-stimulated 86Rb+ efflux, cell line KXα3β4R2) was 5800 nM.

With `CN[C@@H](C)Cc1ccccc1` [methamphetamine], in test [2] (setting [6]), the koff worked out at 6.81 s⁻¹. Besides, in test [2] (setting [7]), the association rate constant (kon) worked out at 2.91e+07 M⁻¹ s⁻¹. For the same compound, the Kd in test [2] (setting [8]) was 234 nM. Moreover, in test [2] (setting [5]), the “k′(NLC) retention capacity factor” value is listed as 8.38.

In test [2] (log K chromatographic equilibrium constant, α3β4 nAChR, NLC), `O=C(O)c1ccc([N+](=O)[O-])cc1[N+](=O)[O-]` [dinitrobenzoic acid, 2,4-dinitrobenzoic acid] had a Kd of 1350 nM. In addition, in test [2] (α3β4 nAChR, NLC), the “koff dissociation constant rate” value was found to be 12.12 s⁻¹. Besides, the “k′(NLC) retention capacity factor” value in test [2] (setting [5]) stood at 7.77.
